Values after ≈ are worked out from the molar mass of the structure shown.
Tests used:
Format in all cases: functional
[1] = test system: Staphylococcus aureus; test: Antibacterial activity against Staphylococcus aureus ATCC 25923 after 18 to 24 hrs by standard twofold serial dilution method
[2] = test system: Streptococcus pneumoniae; test: Antibacterial activity against Streptococcus pneumoniae 12-18 after 18 to 24 hrs by standard twofold serial dilution method
[3] = test system: Streptococcus pneumoniae; test: Antibacterial activity against Streptococcus pneumoniae ATCC 49619 after 18 to 24 hrs by standard twofold serial dilution method
[4] = test system: Escherichia coli; test: Antibacterial activity against Escherichia coli ATCC 25922 after 18 to 24 hrs by standard twofold serial dilution method
[5] = test system: Klebsiella pneumoniae; test: Antibacterial activity against Klebsiella pneumoniae 12-1 after 18 to 24 hrs by standard twofold serial dilution method
[6] = test system: Klebsiella pneumoniae; test: Antibacterial activity against Klebsiella pneumoniae 12-2 after 18 to 24 hrs by standard twofold serial dilution method
[7] = test system: Klebsiella pneumoniae; test: Antibacterial activity against Klebsiella pneumoniae 12-4 after 18 to 24 hrs by standard twofold serial dilution method
[8] = test system: Staphylococcus epidermidis; test: Antibacterial activity against methicillin-sensitive Staphylococcus epidermidis 12-3 after 18 to 24 hrs by standard twofold serial dilution method
[9] = test system: Mycobacterium tuberculosis; test: Antimycobacterial activity against Mycobacterium tuberculosis H37Rv ATCC 27294 by MABA method
[10] = test system: Staphylococcus aureus; test: Antibacterial activity against methicillin-resistant Staphylococcus aureus 12-5 after 18 to 24 hrs by standard twofold serial dilution method
[11] = test system: Staphylococcus aureus; test: Antibacterial activity against methicillin-sensitive Staphylococcus aureus 12-2 after 18 to 24 hrs by standard twofold serial dilution method
[12] = test system: Staphylococcus epidermidis; test: Antibacterial activity against methicillin-resistant Staphylococcus epidermidis 12-1 after 18 to 24 hrs by standard twofold serial dilution method
[13] = test system: Staphylococcus aureus; test: Antibacterial activity against methicillin-resistant Staphylococcus aureus 12-2 after 18 to 24 hrs by standard twofold serial dilution method
[14] = test system: Pseudomonas aeruginosa; test: Antibacterial activity against Pseudomonas aeruginosa 12-14 after 18 to 24 hrs by standard twofold serial dilution method
[15] = test system: Escherichia coli; test: Antibacterial activity against extended-spectrum beta-lactamase producing Escherichia coli 12-14 after 18 to 24 hrs by standard twofold serial dilution method
[16] = test system: Escherichia coli; test: Antibacterial activity against extended-spectrum beta-lactamase producing Escherichia coli 12-2 after 18 to 24 hrs by standard twofold serial dilution method
[17] = test system: Klebsiella pneumoniae; test: Antibacterial activity against extended-spectrum beta-lactamase producin Klebsiella pneumoniae 12-3 after 18 to 24 hrs by standard twofold serial dilution method
[18] = test system: Staphylococcus epidermidis; test: Antibacterial activity against methicillin-sensitive Staphylococcus epidermidis 12-8 after 18 to 24 hrs by standard twofold serial dilution method
[19] = test system: Escherichia coli; test: Antibacterial activity against Escherichia coli 12-1 after 18 to 24 hrs by standard twofold serial dilution method
[20] = test system: Klebsiella pneumoniae; test: Antibacterial activity against extended-spectrum beta-lactamase producin Klebsiella pneumoniae 12-4 after 18 to 24 hrs by standard twofold serial dilution method
[21] = test system: Staphylococcus aureus; test: Antibacterial activity against methicillin-resistant Staphylococcus aureus 12-4 after 18 to 24 hrs by standard twofold serial dilution method
[22] = test system: Staphylococcus epidermidis; test: Antibacterial activity against methicillin-sensitive Staphylococcus epidermidis 12-1 after 18 to 24 hrs by standard twofold serial dilution method
[23] = test system: Staphylococcus aureus; test: Antibacterial activity against methicillin-sensitive Staphylococcus aureus 12-1 after 18 to 24 hrs by standard twofold serial dilution method
[24] = test system: Klebsiella pneumoniae; test: Antibacterial activity against extended-spectrum beta-lactamase producin Klebsiella pneumoniae 12-14 after 18 to 24 hrs by standard twofold serial dilution method
[25] = test system: Klebsiella pneumoniae; test: Antibacterial activity against extended-spectrum beta-lactamase producin Klebsiella pneumoniae 12-7 after 18 to 24 hrs by standard twofold serial dilution method
[26] = test system: Pseudomonas aeruginosa; test: Antibacterial activity against Pseudomonas aeruginosa 12-12 after 18 to 24 hrs by standard twofold serial dilution method
[27] = test system: Staphylococcus aureus; test: Antibacterial activity against methicillin-sensitive Staphylococcus aureus 12-4 after 18 to 24 hrs by standard twofold serial dilution method
[28] = test system: Staphylococcus epidermidis; test: Antibacterial activity against methicillin-resistant Staphylococcus epidermidis 12-6 after 18 to 24 hrs by standard twofold serial dilution method
[29] = test system: Staphylococcus epidermidis; test: Antibacterial activity against methicillin-sensitive Staphylococcus epidermidis 12-6 after 18 to 24 hrs by standard twofold serial dilution method
[30] = test system: Escherichia coli; test: Antibacterial activity against extended-spectrum beta-lactamase producing Escherichia coli 12-15 after 18 to 24 hrs by standard twofold serial dilution method
[31] = test system: Escherichia coli; test: Antibacterial activity against extended-spectrum beta-lactamase producing Escherichia coli 12-3 after 18 to 24 hrs by standard twofold serial dilution method
[32] = test system: Staphylococcus aureus; test: Antibacterial activity against methicillin-sensitive Staphylococcus aureus 12-5 after 18 to 24 hrs by standard twofold serial dilution method

CO/N=C1/CN(c2cc3c(cc2F)c(=O)c(C(=O)O)cn3[C@@H]2C[C@@H]2F)CC1CN (some centres undefined)
MIC [1]: < 0.008 µg/mL
MIC [2]: 0.25 µg/mL (≈ 0.615 µM)
MIC [3]: 0.03 µg/mL (≈ 0.0738 µM)
MIC [4]: 0.03 µg/mL (≈ 0.0738 µM)
MIC [5]: 0.25 µg/mL (≈ 0.615 µM)
MIC [6]: 0.25 µg/mL (≈ 0.615 µM)
MIC [7]: 0.25 µg/mL (≈ 0.615 µM)
MIC [8]: 0.06 µg/mL (≈ 0.148 µM)
MIC [9]: 1 µg/mL (≈ 2.46 µM)
MIC [10]: 8 µg/mL (≈ 19.7 µM)
MIC [11]: 0.125 µg/mL (≈ 0.308 µM)
MIC [12]: 2 µg/mL (≈ 4.92 µM)
MIC [13]: 16 µg/mL (≈ 39.4 µM)
MIC [14]: 2 µg/mL (≈ 4.92 µM)
MIC [15]: 32 µg/mL (≈ 78.7 µM)
MIC [16]: 128 µg/mL (≈ 315 µM)
MIC [17]: 32 µg/mL (≈ 78.7 µM)
MIC [18]: 0.25 µg/mL (≈ 0.615 µM)
MIC [19]: 0.25 µg/mL (≈ 0.615 µM)
MIC [20]: 16 µg/mL (≈ 39.4 µM)
MIC [21]: 4 µg/mL (≈ 9.84 µM)
MIC [22]: 0.06 µg/mL (≈ 0.148 µM)
MIC [23]: 0.125 µg/mL (≈ 0.308 µM)
MIC [24]: 64 µg/mL (≈ 157 µM)
MIC [25]: 1 µg/mL (≈ 2.46 µM)
MIC [26]: 2 µg/mL (≈ 4.92 µM)
MIC [27]: 0.06 µg/mL (≈ 0.148 µM)
MIC [28]: 0.125 µg/mL (≈ 0.308 µM)
MIC [29]: 0.125 µg/mL (≈ 0.308 µM)
MIC [30]: 128 µg/mL (≈ 315 µM)
MIC [31]: 32 µg/mL (≈ 78.7 µM)
MIC [32]: 0.125 µg/mL (≈ 0.308 µM)

CCO/N=C1/CN(c2nc3c(cc2F)c(=O)c(C(=O)O)cn3[C@@H]2C[C@@H]2F)[C@H]1CN
MIC [1]: 0.5 µg/mL (≈ 1.23 µM)
MIC [2]: 4 µg/mL (≈ 9.82 µM)
MIC [3]: 0.5 µg/mL (≈ 1.23 µM)
MIC [4]: 0.125 µg/mL (≈ 0.307 µM)
MIC [5]: 0.5 µg/mL (≈ 1.23 µM)
MIC [6]: 0.5 µg/mL (≈ 1.23 µM)
MIC [7]: 0.25 µg/mL (≈ 0.614 µM)
MIC [8]: 1 µg/mL (≈ 2.45 µM)
MIC [9]: 1 µg/mL (≈ 2.45 µM)
MIC [10]: 64 µg/mL (≈ 157 µM)
MIC [11]: 0.25 µg/mL (≈ 0.614 µM)
MIC [12]: 16 µg/mL (≈ 39.3 µM)
MIC [13]: 64 µg/mL (≈ 157 µM)
MIC [14]: 32 µg/mL (≈ 78.6 µM)
MIC [15]: 128 µg/mL (≈ 314 µM)
MIC [16]: > 128 µg/mL
MIC [17]: 128 µg/mL (≈ 314 µM)
MIC [18]: 16 µg/mL (≈ 39.3 µM)
MIC [19]: 2 µg/mL (≈ 4.91 µM)
MIC [20]: 8 µg/mL (≈ 19.6 µM)
MIC [21]: 64 µg/mL (≈ 157 µM)
MIC [22]: 0.5 µg/mL (≈ 1.23 µM)
MIC [23]: 0.5 µg/mL (≈ 1.23 µM)
MIC [24]: 64 µg/mL (≈ 157 µM)
MIC [25]: 4 µg/mL (≈ 9.82 µM)
MIC [26]: 1 µg/mL (≈ 2.45 µM)
MIC [27]: 0.25 µg/mL (≈ 0.614 µM)
MIC [28]: 16 µg/mL (≈ 39.3 µM)
MIC [29]: 0.25 µg/mL (≈ 0.614 µM)
MIC [30]: > 128 µg/mL
MIC [31]: 16 µg/mL (≈ 39.3 µM)
MIC [32]: 0.5 µg/mL (≈ 1.23 µM)
